Assay results reported in patent publication US20230117034A1, “PYRAZOLOTRIAZINES” (Bayer Aktiengesellschaft, priority 2019, published 2023).

Experiments:
CDK9/CycT1 = target: T1, CDK9/CycT1 (Homo sapiens, UniProt P50750); assay: CDK9/CycT1 high ATP kinase assay (TR-FRET, 2 mM ATP); assay type: biochemical; conditions: 2 mM ATP (high ATP); median; read-out: CDK9/CyclinT1, 2 mM ATP (high ATP), IC50 (median)
T1 construct: Recombinant full-length His-tagged human CDK9 and CycT1; purchased Life Technologies PV4131; host or cells: insect cells
T1 sequence (P50750 whole entry): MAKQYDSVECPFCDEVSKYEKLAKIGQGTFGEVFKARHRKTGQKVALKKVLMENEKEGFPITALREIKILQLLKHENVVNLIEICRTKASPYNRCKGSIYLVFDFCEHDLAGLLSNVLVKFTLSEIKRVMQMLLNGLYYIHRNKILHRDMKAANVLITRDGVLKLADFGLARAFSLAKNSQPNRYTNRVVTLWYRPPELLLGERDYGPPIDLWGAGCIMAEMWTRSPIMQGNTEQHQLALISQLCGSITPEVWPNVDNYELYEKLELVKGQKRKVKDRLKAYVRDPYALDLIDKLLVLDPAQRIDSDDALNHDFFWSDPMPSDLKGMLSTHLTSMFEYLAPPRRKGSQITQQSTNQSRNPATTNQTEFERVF
T1 sequence (O60563 whole entry partner): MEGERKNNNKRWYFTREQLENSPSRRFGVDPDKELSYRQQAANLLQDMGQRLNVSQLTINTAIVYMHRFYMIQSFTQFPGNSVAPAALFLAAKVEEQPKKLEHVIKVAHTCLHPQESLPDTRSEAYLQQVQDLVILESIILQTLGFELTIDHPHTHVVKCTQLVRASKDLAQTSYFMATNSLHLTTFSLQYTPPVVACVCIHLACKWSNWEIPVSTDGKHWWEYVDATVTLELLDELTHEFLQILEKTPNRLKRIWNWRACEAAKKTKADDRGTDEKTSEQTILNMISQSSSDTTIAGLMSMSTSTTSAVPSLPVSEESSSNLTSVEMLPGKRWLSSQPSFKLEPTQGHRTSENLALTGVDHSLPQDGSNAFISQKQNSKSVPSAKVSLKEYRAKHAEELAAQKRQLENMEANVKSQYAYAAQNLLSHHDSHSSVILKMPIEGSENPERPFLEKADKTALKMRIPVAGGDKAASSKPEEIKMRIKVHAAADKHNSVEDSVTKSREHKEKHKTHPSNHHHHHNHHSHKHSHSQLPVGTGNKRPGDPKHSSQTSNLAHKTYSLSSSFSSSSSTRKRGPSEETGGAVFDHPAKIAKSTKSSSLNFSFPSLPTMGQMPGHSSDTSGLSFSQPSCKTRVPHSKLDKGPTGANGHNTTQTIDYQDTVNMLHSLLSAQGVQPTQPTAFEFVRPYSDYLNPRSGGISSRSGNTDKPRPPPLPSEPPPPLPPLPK
Procedure: CDK9/CycT1-inhibitory activity of compounds of the present invention at a high ATP concentration after preincubation of enzyme and test compounds was quantified employing the CDK9/CycT1 TR-FRET assay as described in the following paragraphs.
Recombinant full-length His-tagged human CDK9 and CycT1, expressed in insect cells and purified by Ni-NTA affinity chromatography, were purchased from Life Technologies (Cat. No PV4131). As substrate for the kinase reaction biotinylated peptide biotin-Ttds-[…] (C-terminus in amide form) was used which can be purchased e.g. form the company JERINI peptide technologies (Berlin, Germany).
For the assay 50 nanoL of a 100 fold concentrated solution of the test compound in DMSO was pipetted into either a black low volume 384 well microtiter plate or a black 1536 well microtiter plate (both Greiner Bio-One, Frickenhausen, Germany), 2 microL of a solution of CDK9/CycT1 in aqueous assay buffer [50 millimol/L Tris/HCl pH 8.0, 10 millimol/L MgCl2, 1.0 millimol/L dithiothreitol, 0.1 millimol/L sodium ortho-vanadate, 0.01% (v/v) Nonidet-P40 (Sigma)] were added and the mixture was incubated for 15 min at 22° C. to allow pre-binding of the test compounds to the enzyme before the start of the kinase reaction. […] The concentration of CDK9/CycT1 was adjusted depending of the activity of the enzyme lot and was chosen appropriate to have the assay in the linear range, typical concentrations were in the range of 0.5 microg/ml.
The resulting mixture was incubated 1 h at 22° C. to allow the formation of complex between the phosphorylated biotinylated peptide and the detection reagents. Subsequently the amount of phosphorylated substrate was evaluated by measurement of the resonance energy transfer from the Eu-chelate to the streptavidine-XL. Therefore, the fluorescence emissions at 620 nm and 665 nm after excitation at 350 nm was measured in a TR-FRET reader, e.g. a Pherastar (BMG Labtechnologies, Offenburg, Germany) or a Viewlux (Perkin-Elmer). The ratio of the emissions at 665 nm and at […] was taken as the measure for the amount of phosphorylated substrate.

[1] = tested on: CAL-120, human breast adenocarcinoma cells; assay: Proliferation assay CAL-120 (crystal violet, 4 days); assay type: cell-based; conditions: Homo sapiens, CAL-120, 96 h, CAL-120 cells, median, read-out: Prolif-CAL-120, IC50-[mol/l] (median)
Procedure: Human tumour cells were originally obtained from the American Type Culture Collection (ATCC), or from the Deutsche Sammlung von Mikroorganismen und Zellkulturen (DSMZ, German Collection of Microorganisms and Cell Cultures). Cultivated tumour cells (CAL-120, human breast adenocarcinoma cells, DSMZ ACC-459; MDA-MB-231, human breast cancer cells, ATCC HTB-26) were plated at a density of 4,000 cells/well in a 96-well multititer plate in 200 microL of their respective growth medium supplemented 10% fetal calf serum. After 24 hours, the cells of one plate (zero-point plate) were stained with crystal violet (see below), while the medium of the other plates was supplemented with the test substances in various concentrations (0 micromol/L, as well as in the range of 0.01-10 micromol/L; the final concentration of the solvent dimethyl sulfoxide was adjusted to 0.1%) using a Tecan HP D300 Digital Dispenser. The cells were incubated for 4 days in the presence of test substances. Cell proliferation was determined by staining the cells with crystal violet: the cells were fixed by adding 20 microL/measuring point of an 11% glutaric aldehyde solution for 15 minutes at room temperature. After three washing cycles of the fixed cells with water, the plates were dried at room temperature. The cells were stained by adding 100 microL/measuring point of a 0.1% crystal violet solution (pH 3.0). After three washing cycles of the stained cells with water, the plates were dried at room temperature. The dye was dissolved by adding 100 microL/measuring point of a 10% acetic acid solution. The extinction was determined by photometry at a wavelength of 595 nm. The change of cell number, in percent, was calculated by normalization of the measured values to the extinction values of the zero-point plate (=0%) and the extinction of the untreated (0 μM) cells (=100%). The IC50 values (inhibitory concentration at 50% of maximal effect) were determined by means of a 4 parameter fit.

[2] = target: T2, CDK12 (nuclear staining in CAL-120 cells) (Homo sapiens, UniProt Q9NYV4); assay: CDK12 nuclear protein level: immunofluorescence/high content analysis (CAL-120); assay type: cell-based; conditions: for DC50: CAL-120 cells, 24 h, immunofluorescence, 50% reduction of nuclear CDK12 staining intensity, median, read-out: CDK12 degradation IF, DC50- [mol/l] (median); for (IC50 CDK12 high ATP) to (Degradation DC50 CDK12) ratio: ratio of IC50 CDK12 high ATP kinase assay to DC50 CDK12 degradation (IF, CAL-120)
T2 construct: endogenous in cells; host or cells: CAL-120 human breast cancer cells (DSMZ ACC 459)
T2 sequence (Q9NYV4 whole entry): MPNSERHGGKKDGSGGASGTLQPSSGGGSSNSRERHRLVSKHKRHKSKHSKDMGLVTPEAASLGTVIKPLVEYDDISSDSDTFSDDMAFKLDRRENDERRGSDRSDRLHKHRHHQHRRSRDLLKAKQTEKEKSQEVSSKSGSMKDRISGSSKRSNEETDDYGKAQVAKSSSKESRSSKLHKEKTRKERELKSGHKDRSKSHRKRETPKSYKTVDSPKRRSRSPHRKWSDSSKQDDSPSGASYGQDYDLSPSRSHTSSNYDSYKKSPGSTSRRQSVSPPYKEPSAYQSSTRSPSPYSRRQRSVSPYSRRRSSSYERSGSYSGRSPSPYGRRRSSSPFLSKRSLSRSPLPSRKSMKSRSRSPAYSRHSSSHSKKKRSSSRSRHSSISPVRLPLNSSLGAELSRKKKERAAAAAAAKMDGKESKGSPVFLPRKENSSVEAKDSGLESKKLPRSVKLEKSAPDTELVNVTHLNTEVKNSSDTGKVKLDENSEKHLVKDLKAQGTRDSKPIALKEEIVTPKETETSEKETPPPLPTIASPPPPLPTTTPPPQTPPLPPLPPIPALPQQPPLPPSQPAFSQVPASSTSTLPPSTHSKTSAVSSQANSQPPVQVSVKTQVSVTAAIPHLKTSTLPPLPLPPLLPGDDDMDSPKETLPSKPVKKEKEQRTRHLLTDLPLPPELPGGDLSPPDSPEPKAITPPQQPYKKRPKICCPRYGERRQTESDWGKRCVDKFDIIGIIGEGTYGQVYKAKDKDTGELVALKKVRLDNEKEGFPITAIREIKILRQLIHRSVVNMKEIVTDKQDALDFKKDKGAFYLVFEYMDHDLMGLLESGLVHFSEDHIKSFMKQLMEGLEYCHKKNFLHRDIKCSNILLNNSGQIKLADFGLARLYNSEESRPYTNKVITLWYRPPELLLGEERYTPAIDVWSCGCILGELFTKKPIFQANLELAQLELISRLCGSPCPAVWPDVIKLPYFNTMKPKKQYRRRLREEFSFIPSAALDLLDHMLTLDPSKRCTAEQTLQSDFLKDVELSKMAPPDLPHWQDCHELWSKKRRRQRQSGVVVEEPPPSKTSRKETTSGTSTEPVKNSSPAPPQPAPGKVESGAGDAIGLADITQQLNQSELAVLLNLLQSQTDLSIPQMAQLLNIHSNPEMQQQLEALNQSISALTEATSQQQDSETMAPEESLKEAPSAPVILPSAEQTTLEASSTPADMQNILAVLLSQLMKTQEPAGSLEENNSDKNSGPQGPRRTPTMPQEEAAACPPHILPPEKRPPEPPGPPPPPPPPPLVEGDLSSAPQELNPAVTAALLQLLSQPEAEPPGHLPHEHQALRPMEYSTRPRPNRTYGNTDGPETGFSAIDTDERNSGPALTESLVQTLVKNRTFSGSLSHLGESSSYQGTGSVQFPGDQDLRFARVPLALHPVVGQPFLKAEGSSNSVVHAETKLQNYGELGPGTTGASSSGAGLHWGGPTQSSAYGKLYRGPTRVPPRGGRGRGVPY
T2 sequence (O75909 whole entry partner): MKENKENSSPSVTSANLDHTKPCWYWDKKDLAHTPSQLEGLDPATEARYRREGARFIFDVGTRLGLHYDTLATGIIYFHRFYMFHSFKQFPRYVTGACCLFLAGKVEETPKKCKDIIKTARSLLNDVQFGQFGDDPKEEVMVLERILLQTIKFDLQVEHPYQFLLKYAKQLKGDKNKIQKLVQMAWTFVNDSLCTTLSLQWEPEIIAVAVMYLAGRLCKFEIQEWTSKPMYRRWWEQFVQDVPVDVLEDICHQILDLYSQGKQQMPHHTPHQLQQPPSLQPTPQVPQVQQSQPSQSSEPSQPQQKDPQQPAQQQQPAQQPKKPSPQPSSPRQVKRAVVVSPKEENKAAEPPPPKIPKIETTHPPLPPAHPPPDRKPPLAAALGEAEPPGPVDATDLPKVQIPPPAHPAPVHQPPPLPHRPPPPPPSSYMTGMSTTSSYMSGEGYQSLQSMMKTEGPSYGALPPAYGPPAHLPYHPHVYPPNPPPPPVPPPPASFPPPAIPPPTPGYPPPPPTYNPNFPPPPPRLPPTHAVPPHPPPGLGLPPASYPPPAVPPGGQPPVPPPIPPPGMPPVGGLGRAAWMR
Procedure: In the context of the present invention, the term “DC50 CDK12” refers to the DC50 values obtained according to the assay described in this section (7) herein below, i.e. the DC50 values for the degradation of CDK12.
Plates are then incubated for 24 h at 37° C. in an humidified incubator and fixed with 4% PFA for 10 min. […] Nuclear and cytoplasmic intensity as well as the nuclear/cytoplasmic intensity ratio is determined by automated image analysis using custom generated scripts (MetaXpress). Data is then transferred to Genedata Screener software, normalized to DMSO and control and DC50 values (degrading concentration to achieve 50% reduction of nuclear CDK12 staining intensity relative to controls) are reported.

SMILES	IC50 (CDK9/CycT1) [µM]	IC50 [1] [µM]	DC50 [2] [µM]	(IC50 CDK12 high ATP) to (Degradation DC50 CDK12) ratio [2]
Brc1cnn2c(NCc3nc4ccccc4[nH]3)nc(N3C[C@H]4C[C@@H]3CO4)nc12 [Example 102, N-[(1H-benzimidazol-2-yl)methyl]-8-bromo-2-[(1R,4R)-2-oxa-5-azabicyclo[2.2.1]heptan-5-yl]pyrazolo[1,5-a][1,3,5]triazin-4-amine]	> 20	0.027	0.00141	4897
CN1CCN(c2nc(NCc3nc4ccccc4[nH]3)n3ncc(Br)c3n2)C(CO)C1 (stereo not shown) [Example 155, [1-[4-(1H-benzimidazol-2-ylmethylamino)-8-bromo-pyrazolo[1,5-a][1,3,5]triazin-2-yl]-4-methyl-piperazin-2-yl]methanol]	> 20	0.0753	0.0472	79
c1ccc(-c2cnn3c(NCc4nc5ccccc5[nH]4)nc(N4CCOCC4)nc23)cc1 [Example 104, N-[(1H-benzimidazol-2-yl)methyl]-2-(morpholin-4-yl)-8-phenylpyrazolo[1,5-a][1,3,5]triazin-4-amine]	> 20	0.127	0.0157	>1272
CN1CCN(c2nc(NCc3nc4c(F)cccc4[nH]3)n3ncc(Br)c3n2)CC1 [Example 126, 8-bromo-N-[(4-fluoro-1H-benzimidazol-2-yl)methyl]-2-(4-methylpiperazin-1-yl)pyrazolo[1,5-a][1,3,5]triazin-4-amine]	> 20	0.011	0.000906	7539
Brc1cnn2c(NCc3nc4ccccc4[nH]3)nc(N3CCN4CCC[C@H]4C3)nc12 [Example 148, N-[(1H-benzimidazol-2-yl)methyl]-8-bromo-2-[(8aS)-hexahydropyrrolo[1,2-a]pyrazin-2 (1 H)-yl]pyrazolo[1,5-a][1,3,5]triazin-4-amine]	> 20	0.109	0.016	677
Clc1cccc(-c2cnn3c(NCc4nc5ccccc5[nH]4)nc(N4CCOCC4)nc23)c1 [Example 107, N-[(1H-benzimidazol-2-yl)methyl]-8-(3-chlorophenyl)-2-(morpholin-4-yl)pyrazolo[1,5-a][1,3,5]triazin-4-amine]	> 20	0.188	0.0577	>347
Fc1ccc2[nH]c(CNc3nc(N4CCOCC4)nc4c(Br)cnn34)nc2c1 [Example 101, 8-bromo-N-[(5-fluoro-1H-benzimidazol-2-yl)methyl]-2-(morpholin-4-yl)pyrazolo[1,5-a][1,3,5]triazin-4-amine]	> 20	0.0041	0.000584	3856

Results, then the molecule that gave them:

IC50 (CDK9/CycT1) [µM]	IC50 [1] [µM]	DC50 [2] [µM]	(IC50 CDK12 high ATP) to (Degradation DC50 CDK12) ratio [2]	SMILES
> 20	0.00105	0.000334	>17106	CN1CCN(c2nc(NCc3nc4cc(Cl)ccc4[nH]3)n3ncc(Br)c3n2)CC1 [Example 163, 8-bromo-N-[(5-chloro-1H-benzimidazol-2-yl)methyl]-2-(4-methylpiperazin-1-yl)pyrazolo[1,5-a][1,3,5]triazin-4-amine]
> 20	0.451	0.076	>263	Brc1cnn2c(NCc3nc4ccccc4[nH]3)nc(N3CCN(C4CC4)CC3)nc12 [Example 138, N-[(1H-benzimidazol-2-yl)methyl]-8-bromo-2-(4-cyclopropylpiperazin-1-yl)pyrazolo[1,5-a][1,3,5]triazin-4-amine]
3.79	0.0531	0.0063	1724	C[C@@H]1CN(c2nc(NCc3nnc(-c4ccccc4)[nH]3)n3ncc(Br)c3n2)C[C@H](C)N1C [Example 125, 8-bromo-N-[(5-phenyl-4H-1,2,4-triazol-3-yl)methyl]-2-[(3R,5S)-3,4,5-trimethylpiperazin-1-yl]pyrazolo[1,5-a][1,3,5]triazin-4-amine]
10.1	0.404	0.0435	172	CN1CCN(c2nc(NCc3nnc(-c4ccccc4)[nH]3)n3ncc(Br)c3n2)CC1=O [Example 121, 4-(8-bromo-4-{[(5-phenyl-4H-1,2,4-triazol-3-yl)methyl]amino}pyrazolo[1,5-a][1,3,5]triazin-2-yl)-1-methylpiperazin-2-one]
> 20	0.0201	0.00339	1800	O=S1(=O)CCN(c2nc(NCc3nc4ccccc4[nH]3)n3ncc(Br)c3n2)CC1 [Example 166, 4-(4-{[(1H-benzimidazol-2-yl)methyl]amino}-8-bromopyrazolo[1,5-a][1,3,5]triazin-2-yl)-1 lambda^6-thiomorpholine-1,1-dione]
> 20	0.0417	0.00369	3939	C[C@@H]1CN(c2nc(NCc3nc4ccccc4[nH]3)n3ncc(Br)c3n2)CCN1C [Example 135, N-[(1H-benzimidazol-2-yl)methyl]-8-bromo-2-[(3R)-3,4-dimethylpiperazin-1-yl]pyrazolo[1,5-a][1,3,5]triazin-4-amine]
> 20	0.11	0.00632	590	[O-][S+]1CCN(c2nc(NCc3nc4ccccc4[nH]3)n3ncc(Br)c3n2)CC1 [Example 144, 4-(4-{[(1H-benzimidazol-2-yl)methyl]amino}-8-bromopyrazolo[1,5-a][1,3,5]triazin-2-yl)-1lambda^4-thiomorpholin-1-one]
> 20	0.255	0.0583	140	C[C@@H]1CCCCN1c1nc(NCc2nc3ccccc3[nH]2)n2ncc(Br)c2n1 [Example 140, N-[(1H-benzimidazol-2-yl)methyl]-8-bromo-2-[(2R)-2-methylpiperidin-1-yl]pyrazolo[1,5-a][1,3,5]triazin-4-amine]
0.82	0.0602	0.0102	122	Fc1cc(-c2nnc(CNc3nc(N4CCOCC4)nc4c(Br)cnn34)[nH]2)cc(F)c1F [Example 100, 8-bromo-2-(morpholin-4-yl)-N-{[5-(3,4,5-trifluorophenyl)-4H-1,2,4-triazol-3-yl]methyl}pyrazolo[1,5-a][1,3,5]triazin-4-amine]
